Laboratory results published in patent publication US20070275982A1, “METHOD” (ASTRAZENECA AB, priority 2006, published 2007).
Where two headings read alike, the source gives them in different places.

Test system: M. tuberculosis
Assay: MIC of drugs alone and in combination (synergy test)
Type: cell-based, Mycobacterium tuberculosis
Details: for change of MIC when tested together: combination Ethambutol + Isoniazid (negative control, FIG. 2); for MIC: Mycobacterium tuberculosis, drug tested alone, read-out: individual MIC
Method: A sulfonylurea ALS inhibitor and a triazolopyrimidine ALS inhibitor were tested alone and in combination with Rifampicin. The positive controls used were Isoniazid and Streptomycin where one finds a synergistic action. The individual MICs of Isoniazid (INH) and Streptomycin (Strep) are 0.03 and 1.0 μg/ml respectively. When used in combination, these values drop to 0.0075 and 0.12 μg/ml respectively (cf. FIG. 1). This is 4 fold and 8 fold less.
The negative control used was a combination of Ethambutol (Etham) and Isoniazid (Inh) where there is no synergistic activity. […] In. Clinical Microbiology Procedures Handbook; Vol. 1-2 by Isenberg, Henry. D. Ed Washington D.C.; American Society for Microbiology/1992; Pages 5.18.1 to 5.18.28).

[1] = combination Isoniazid + Streptomycin
[2] = combination Isoniazid + Streptomycin (positive control, FIG. 1)

Row | SMILES | change of MIC when tested together | MIC | fold drop of MIC in combination vs individual MIC [1] | MIC when used in combination [2] | MIC (Rifampicin/TP experiment (FIG. 4)) | fold drop of MIC in combination vs individual MIC (combination Rifampicin + SU) | fold drop of MIC in combination vs individual MIC (combination Rifampicin + TP) | MIC when used in combination (combination Rifampicin + sulphonylurea compound (SU), FIG. 3) | MIC when used in combination (combination Rifampicin + triazolopyrimidine compound (TP), FIG. 4)
1 | CC[C@@H](CO)NCCN[C@@H](CC)CO [Ethambutol] | do not drop significantly |  |  |  |  |  |  |  | 
2 | NNC(=O)c1ccncc1 [Isoniazid] | do not drop significantly | 0.03 µg/mL | 4 fold | 7.5 ng/mL |  |  |  |  | 
3 | CO[C@H]1/C=C/O[C@@]2(C)Oc3c(C)c(O)c4c(O)c(c(/C=N/N5CCN(C)CC5)c(O)c4c3C2=O)NC(=O)/C(C)=C\C=C\[C@H](C)[C@H](O)[C@@H](C)[C@@H](O)[C@@H](C)[C@H](OC(C)=O)[C@@H]1C [Rifampicin] |  | 0.03 µg/mL |  |  | 0.015 µg/mL | 8 fold | 4 fold | 3.8 ng/mL | 3.8 ng/mL
4 | [H]/N=C(/N)N[C@H]1[C@H](O)[C@@H](O)[C@H](O[C@@H]2O[C@@H](C)[C@](O)(C=O)[C@H]2O[C@@H]2O[C@@H](CO)[C@H](O)[C@@H](O)[C@@H]2NC)[C@@H](N/C(N)=N\[H])[C@@H]1O [Streptomycin] |  | 1 µg/mL | 8 fold | 120 ng/mL |  |  |  |  | 
